According to US20040192764A1 (H. Lundbeck A/S, priority 2001, published 2004):

Experiment: pharmacological and clinical studies (potency versus racemate, influence of R-citalopram)
Type: in vivo
Settings: presence of R-citalopram
From the text: This may be shown in functional in-vivo pharmacological models and studies of 5-HT-reuptake effect and or in behaviour models, for example depression models.

## CN(C)CCC[C@]1(c2ccc(F)cc2)OCc2cc(C#N)ccc21 [R-citalopram]
  influence on the effect of escitalopram: negative impact on the effect of escitalopram
